Results on two compounds are retold here after article PMC4249961, “Characterization of an Acidic Chitinase from Seeds of Black Soybean (Glycine max (L) Merr Tainan No. 3)” (PLoS ONE, 2014).

Experiment [1] deals with T1, purified chitinase from black soybean seeds (acidic chitinase, 20.1 kDa).
T1 construct: native purification from seeds; monomer; smaller than known soybean seed class III (28 kDa) and class I (32 kDa) chitinases; trace basic isoform co-purified
As to the kind of experiment: p-nitrophenol release at […] nm, Lineweaver-Burk. As to conditions: pH 4.0, 37 °C, 0.05 M acetate, 30 min. In kind it is biochemical, Glycine max.

The test system is the same in experiment [2]. The experiment in a line: fluorimetric release of 4-methylumbelliferone, Lineweaver-Burk. In kind it is biochemical, Glycine max. As to conditions: pH 5.0, 40 °C, 0.05 M sodium acetate, 30 min. From the text: fluorimetric release of 4-methylumbelliferone, Lineweaver-Burk on purified chitinase from black soybean seeds (acidic chitinase, 20.1 kDa)

Structures are written as SMILES.

Take `CC(=O)N[C@H]1[C@H](Oc2ccc([N+](=O)[O-])cc2)O[C@H](CO)[C@@H](O[C@@H]2O[C@H](CO)[C@@H](O[C@@H]3O[C@H](CO)[C@@H](O[C@@H]4O[C@H](CO)[C@@H](O)[C@H](O)[C@H]4NC(C)=O)[C@H](O)[C@H]3NC(C)=O)[C@H](O)[C@H]2NC(C)=O)[C@@H]1O` [pNp-GlcNAc4]: the Km in experiment [1] stood at 245 µM.
For the compound `CC(=O)N[C@H]1[C@H](Oc2ccc3c(C)cc(=O)oc3c2)O[C@H](CO)[C@@H](O[C@@H]2O[C@H](CO)[C@@H](O[C@@H]3O[C@H](CO)[C@@H](O)[C@H](O)[C@H]3NC(C)=O)[C@H](O)[C@H]2NC(C)=O)[C@@H]1O` [4-MU-GlcNAc3], the Km in experiment [2] stood at 17.4 µM.

Broadly, the Km is the concentration of substrate that gives half-maximal velocity.
